Patent publication US20120027815A1, “USE OF PLASMA MEMBRANE CALCIUM ATPASE (PMCA) INHIBITORS TO INHIBIT SPERM MOBILITY” (priority 2003, published 2012)

How the values were obtained:
sperm = experiment: Suppression of sperm mobility, manual counting of motile vs non-motile sperm; type: cell-based, mouse; settings: incubated 1 hour at 37° C., 30% non-motile without inhibitor
Description: The inhibition of sperm function, i.e. the inhibition of sperm mobility, was determined as follows:
PMCA4-deficient male mice were sacrificed and the epididymis of each was prepared. These tissues were placed into 2 ml of a sperm preparation medium (“Sperm Preparation Medium” from the MediCult a/s Company, Möllehaven 12, 4040 Jyllinge, Denmark, comprising: Earle's balanced saline solution, sodium pyruvate, synthetic serum substitute, IIEPES [hydroxy-ethyl-piperazine ethanesulphonic acid], sodium bicarbonate, human serum albumen; penicillin 50,000 IU/liter and streptomycin 50 mg/litre; Kahn, J. A., Human Reproduction 8/9, pages 1414-1419, 1993; Lähteenmaki, A., Human Reproduction 10/1, pages 142-147, 1995) and a subsequent incision was made using a sterile scalpel. All functioning sperm were allowed 15 minutes to swim out of the epididymis. The supernatant containing these sperm was removed and mixed with 500 μl each of increasing concentrations of 5- and 6-carboxyeosindiacetate succinimidyl ester (CE). Following this step, the sperm were incubated for 1 hour at 37° C. CE diffuses into the sperm during this time; the ester is hydrolyzed on the intracellular level. Afterwards, the remaining motile sperm were counted in relation to the non-motile ones.

normal sperm = experiment: Inhibition of sperm motility evaluated automatically with the CASA System 4.2; type: cell-based, mouse; settings: Group C: normal sperm, 45 minutes after preparation, 37° C., 30 minutes with 20 μM inhibitor
Description: PMCA4-deficient male mice were sacrificed and the epididymis of each was prepared. These tissues were placed into 2 ml of a sperm preparation medium (“Sperm Preparation Medium” from the MediCult a/s Company, Möllehaven 12, 4040 Jyllinge, Denmark, comprising: Earle's balanced saline solution, sodium pyruvate, synthetic serum substitute, IIEPES [hydroxy-ethyl-piperazine ethanesulphonic acid], sodium bicarbonate, human serum albumen; penicillin 50,000 IU/liter and streptomycin 50 mg/litre; Kahn, J. A., Human Reproduction 8/9, pages 1414-1419, 1993; Lähteenmaki, A., Human Reproduction 10/1, pages 142-147, 1995) and a subsequent incision was made using a sterile scalpel. All functioning sperm were allowed 15 minutes to swim out of the epididymis. […] Afterwards, the remaining motile sperm were counted in relation to the non-motile ones.
The inhibition of sperm motility was further evaluated automatically using the CASA System 4.2 from the medeaLAB Company, Erlangen, Germany. […]
For the above automated experimental protocol, the incubation time (compared to manual counting) was shortened (only 30 minutes instead of 1 hour) and the software also recorded non-meaningful objects that were present in the sample, such objects could be readily excluded with manual counting.

PMCA = settings: in vitro; cited from earlier work

Row | Substance | Non-motile sperm (sperm; CE concentration 5 μM) | Non-motile sperm (sperm; CE concentration 20 μM) | Non-motile sperm (sperm; CE concentration 100 μM) | locally mobile or non-motile (normal sperm; untreated Group A 27%) | Progressive motility (normal sperm; untreated Group A 73%) | Binding to PMCA and influence on PMCA function (PMCA)
1 | 5- and 6-carboxyeosindiacetate succinimidyl ester | 90% | 95% | 97% | 78% | 22% | 
2 | Caloxin 2A1: polypeptide with the amino acid sequence VSNSNWPSFPSSGGG, acts extracellularly on PMCA |  |  |  |  |  | binds extra-cellularly to PMCA and has an inhibitory influence on the function of the PMCA
